In publication doi:10.1101/2025.11.27.691040v1 (biorxiv, 2025):

Biological target: T1, AtCKA1 (Arabidopsis thaliana, UniProt Q08467)
T1 sequence (Q08467 76-409): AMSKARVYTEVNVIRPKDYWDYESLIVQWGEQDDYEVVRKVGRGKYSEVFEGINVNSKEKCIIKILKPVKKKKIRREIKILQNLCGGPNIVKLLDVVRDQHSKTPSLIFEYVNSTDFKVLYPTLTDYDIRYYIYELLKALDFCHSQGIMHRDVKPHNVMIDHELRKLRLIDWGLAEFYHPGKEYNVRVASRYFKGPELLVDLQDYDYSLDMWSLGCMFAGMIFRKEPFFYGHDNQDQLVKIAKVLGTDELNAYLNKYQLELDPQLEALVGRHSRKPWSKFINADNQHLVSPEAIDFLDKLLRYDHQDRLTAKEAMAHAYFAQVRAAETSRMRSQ
Test: biochemical

Kd: 2000 nM
SMILES: O=P(O)(O)O[C@H]1[C@H](OP(=O)(O)O)[C@@H](OP(=O)(O)O)[C@H](OP(=O)(O)O)[C@@H](OP(=O)(O)O)[C@H]1OP(=O)(O)O [InsP6]
